The test system of this assay is MTB H37Rv. Briefly: Bacteriostasis experiment: MIC in 96-well plate, two-fold dilution method. Format: cell-based, Mycobacterium tuberculosis. The conditions noted are these: Mycobacterium tuberculosis, ATCC 27294 / H37Rv, 240 h, MTB H37Rv (ATCC 27294), 7H9 medium, 37° C., about 10 days; read-out: Inhibitory activity against Mycobacterium tuberculosis, MIC, MTB H37Rv.

Converted amounts (≈) assume the structure as drawn.

As for `CCCSc1nc2c(c(=O)[nH]1)C(c1ccc(OCc3ccccc3)cc1)CC(=O)N2` (stereo not shown) [LSL-9-31, 2-propylmercapto-5-(4-benzyloxyphenyl)-5,6-dihydropyrido[2,3-d]pyrimidin-4,7(3H,8H)-dione], the MIC (usually the least concentration at which growth counts as inhibited) was determined as 16 µg/mL (≈ 38 µM).

The record behind these values is US20230303561A1, “PYRIMIDINONE DERIVATIVE, PREPARATION METHOD THEREOF AND USE THEREOF IN RESISTING MYCOBACTERIUM TUBERCULOSIS INFECTION” (INSTITUTE OF MEDICINAL BIOTECHNOLOGY, CHINESE ACADEMY OF …, priority 2020, published 2023).
